Results: US20250109140A1, “5-[5-(PIPERIDIN-4-YL)THIENO[3,2-C]PYRAZOL-2-YL]INDAZOLE DERIVATIVES AND RELATED COMPOUNDS AS MODULATORS FOR SPLICING NUCLEIC ACIDS AND FOR THE TREATMENT OF PROLIFERATIVE DISEASES” (REMIX THERAPUTICS INC., priority 2022, published 2025)
Read-outs that look alike come from different tables or passages of the source.

Assays:
Assay type in all cases: cell-based
SMN2 mRNA = assay: Splicing RT-qPCR gene panel, SMN2 canonical junction (CJ) mRNA; conditions: Homo sapiens; Table 8; larger gene panel, decrease in CJ mRNA levels
Procedure: (§1) Compounds described herein were used to modulate RNA transcript abundance in cells. The expression of a target mRNA was measured by detecting the formation of an exon-exon junction in the canonical transcript (CJ). A compound mediated exon-inclusion event was detected by observing an increase in formation of a new junction with an alternative exon (AJ). Real-time qPCR assays were used to detect these splicing switches and interrogate the potency of various compounds towards different target genes. A high-throughput real time quantitative PCR (RT-qPCR) assay was developed to measure these two isoforms of the mRNA (CJ and AJ) for exemplary genes, such as HTT, SMN2, and MYB, together with a control housekeeping gene, GAPDH or GUSB or PPIA, used for normalization. Briefly, the A673 or K562 cell line was treated with various compounds described herein (e.g., compounds of Formula (I)). After treatment, the levels of the HTT, MYB, or SMN2 mRNA targets were determined from each sample of cell lysate by cDNA synthesis followed by qPCR.
(§2) The A673 cell line was cultured in DMEM with 10% FBS. Cells were diluted with full growth media and plated in a 96-well plate (15,000 cells in 100 ul media per well). The plate was incubated at 37° C. with 5% CO2 for 24 hours to allow cells to adhere. An 11-point 3-fold serial dilution of the compounds was made in DMSO then diluted in media in an intermediate plate. Compounds were transferred from the intermediate plate to the cell plate with the top dose at a final concentration of 10 uM in the well. Final DMSO concentration was kept at or below 0.25%. The cell plate was returned to the incubator at 37° C. with 5% CO2 for an additional 24 hours.
(§3) The K562 cell line was cultured in IMDM with 10% FBS. For K562, cells were diluted with full growth media and plated in either a 96-well plate (50,000 cells in 50 uL media per well) or a 384-well plate (8,000-40,000 cells in 45 uL media per well). An 11-point 3-fold serial dilution of the compounds were made in DMSO then diluted in media in an intermediate plate. Compound was transferred from the intermediate plate to the cell plate with the top dose at a final concentration of 10 uM in the well. Final DMSO concentration was kept at or below 0.25%. Final volume was 100 uL for 96-well plate and 50 uL for 384-well plate. The cell plate was then placed in an incubator at 37° C. with 5% CO2 for 24 hours.
(§4) The cells were then gently washed with 50 uL-100 uL cold PBS before proceeding to addition of lysis buffer. 30 uL-50 uL of room temperature lysis buffer with DNAse I (and optionally RNAsin) was added to each well. Cells were shaken/mixed thoroughly at room temperature for 5-10 minutes for lysis to take place and then 3 uL-5 uL of room temperature stop solution was added and wells were shaken/mixed again. After 2-5 minutes, the cell lysate plate was transferred to ice for RT-qPCR reaction setup. The lysates could also be frozen at-80° C. for later use.
(§5) In some cases, a direct lysis buffer was used. An appropriate volume of 3× lysis buffer (10 mM Tris, 150 mM NaCl, 1.5%-2.5% Igepal and 0.1-1 U/uL RNAsin, pH 7.4) was directly added to either K562 or A673 cells in media and mixed by pipetting 3 times. The plates were then incubated at room temperature with shaking/rocking for 20-50 minutes to allow for lysis to take place. After this time, the cell lysate plate was transferred to ice to set up for the RT-qPCR reactions. The lysates could also be frozen at −80° C. for later use.
(§6) To set up 10 uL RT-qPCR reactions, cell lysates were transferred to 384-well qPCR plates containing the master mix according to the table below. The plates were sealed, gently vortexed, and spun down before the run. The volumes were adjusted accordingly in some instances where the reaction was carried in 20 μL. The table below summarizes the components of the RT-qPCR reactions:
(§7) The RT-qPCR reaction was performed using a QuantStudio (ThermoFisher) under the following fast cycling conditions. […]

HTT mRNA = assay: Splicing RT-qPCR assay, HTT canonical (CJ) and alternative (AJ) junction mRNA; conditions: Homo sapiens; for EC50: AC50 = 50% response in AJ mRNA increase
Procedure: as §1, §2, §3, §4, §5, §6, §7

MYB mRNA = assay: Splicing RT-qPCR assay, MYB canonical (CJ) and alternative (AJ) junction mRNA; conditions: Homo sapiens; for EC50: AC50 = 50% response in AJ mRNA increase
Procedure: as §1, §2, §3, §4, §5, §6, §7

Target C mRNA = assay: Splicing RT-qPCR gene panel, Target C canonical junction (CJ) mRNA; conditions: Homo sapiens; Table 8; larger gene panel, decrease in CJ mRNA levels
Procedure: as §1, §2, §3, §4, §5, §6, §7

[1] = Table 7, RT-qPCR, A673 or K562 cells, 24 hours treatment
[2] = Table 7, IC50 = 50% response in CJ mRNA decrease, RT-qPCR, A673 or K562 cells, 24 hours treatment, read-out: HTT CJ
[3] = Table 8, larger gene panel, decrease in CJ mRNA levels, read-out: HTT CJ IC50
[4] = Table 7, IC50 = 50% response in CJ mRNA decrease, RT-qPCR, A673 or K562 cells, 24 hours treatment, read-out: MYB CJ
[5] = Table 8, larger gene panel, decrease in CJ mRNA levels, read-out: MYB CJ IC50

IC50 (SMN2 mRNA) | EC50 (HTT mRNA; [1]) | IC50 (HTT mRNA; [2]) | IC50 (HTT mRNA; [3]) | EC50 (MYB mRNA; [1]) | IC50 (MYB mRNA; [4]) | IC50 (MYB mRNA; [5]) | IC50 (Target C mRNA) | Compound
< 100 nM | < 100 nM | < 100 nM | < 100 nM | < 100 nM | < 100 nM | < 100 nM | < 100 nM | C[C@@H]1C[C@H](c2cc3sc(-c4cc(F)c5nn(C)cc5c4)nc3s2)CCN1 (single isomer, unassigned) [Compound 192, 7-fluoro-2-methyl-5-[5-(2-methylpiperidin-4-yl)thieno[2,3-d][1,3]thiazol-2-yl]indazole]
< 100 nM | < 100 nM | < 100 nM | < 100 nM | < 100 nM | < 100 nM | < 100 nM | < 100 nM | C[C@@H]1C[C@@H](c2cc3sc(-c4cc(F)c5nn(C)cc5c4)nc3s2)CCN1 (single isomer, unassigned) [Compound 193, 7-fluoro-2-methyl-5-[5-(2-methylpiperidin-4-yl)thieno[2,3-d][1,3]thiazol-2-yl]indazole]
< 100 nM | 100 to 1000 nM | 100 to 1000 nM | 100 to 1000 nM | 1000 to 10000 nM | 100 to 1000 nM | 100 to 1000 nM | 100 to 1000 nM | Cc1cc(-c2cc3cn([C@@H]4CCNC[C@@H]4F)nc3s2)cc2cn(C)nc12 (single isomer, unassigned) [Compound 244]
100 to 1000 nM | 100 to 1000 nM | 100 to 1000 nM | 100 to 1000 nM | 1000 to 10000 nM | 1000 to 10000 nM | 1000 to 10000 nM | 1000 to 10000 nM | Cc1cc(-c2cc3cn([C@H]4CCNC[C@H]4F)nc3s2)cc2cn(C)nc12 (single isomer, unassigned) [Compound 245]
< 100 nM | < 100 nM | < 100 nM | < 100 nM | 100 to 1000 nM | 100 to 1000 nM | 100 to 1000 nM | 100 to 1000 nM | C[C@@H]1C[C@@H](c2cc3sc(-c4cc(F)c5nn(C)cc5c4)nc3s2)CCN1 (stereo in doubt) [Compound 263, 7-fluoro-2-methyl-5-{5-[(2R,4S)-2-methylpiperidin-4-yl]thieno[2,3-d][1,3]thiazol-2-yl}indazole]
– | 1000 to 10000 nM | – | 1000 to 10000 nM | > 10000 nM | > 10000 nM | > 10000 nM | > 10000 nM | Cn1cc2cc(-n3cc4sc(C5CCNCC5)cc4n3)ccc2n1 [Compound 100, 2-methyl-5-[5-(piperidin-4-yl)thieno[3,2-c]pyrazol-2-yl]indazole]
< 100 nM | 100 to 1000 nM | 100 to 1000 nM | 100 to 1000 nM | 1000 to 10000 nM | 100 to 1000 nM | 1000 to 10000 nM | 100 to 1000 nM | Cn1cc2cc(-c3cn4nc(C5CCNCC5)nc4s3)cc(F)c2n1 [Compound 102, 7-fluoro-2-methyl-5-[2-(piperidin-4-yl)-[1,2,4]triazolo[3,2-b][1,3]thiazol-5-yl]indazole]
> 10000 nM | > 10000 nM | > 10000 nM | > 10000 nM | > 10000 nM | > 10000 nM | > 10000 nM | > 10000 nM | Cn1cc2cc(-c3nc4sc(C5CCNCC5)cn4n3)cc(F)c2n1 [Compound 103, 7-fluoro-2-methyl-5-[5-(piperidin-4-yl)-[1,2,4]triazolo[3,2-b][1,3]thiazol-2-yl]indazole]
< 100 nM | < 100 nM | < 100 nM | < 100 nM | < 100 nM | < 100 nM | < 100 nM | < 100 nM | Cn1cc2cc(-c3nc4sc(C5CCNCC5)cc4s3)cc(F)c2n1 [Compound 106, 7-fluoro-2-methyl-5-[5-(piperidin-4-yl)thieno[2,3-d][1,3]thiazol-2-yl]indazole]
< 100 nM | < 100 nM | < 100 nM | < 100 nM | < 100 nM | < 100 nM | < 100 nM | < 100 nM | Cc1cn2nc(-c3nc4sc(C5CCNCC5)cc4s3)cc(C)c2n1 [Compound 112, 4-(2-[2,8-dimethylimidazo[1,2-b]pyridazin-6-yl]thieno[2,3-d][1,3]thiazol-5-yl)piperidine]
< 100 nM | < 100 nM | 100 to 1000 nM | < 100 nM | 100 to 1000 nM | 100 to 1000 nM | 100 to 1000 nM | 100 to 1000 nM | Cn1cc2cc(-c3cc4sc(C5CCNCC5)nc4s3)cc(F)c2n1 [Compound 124, 7-fluoro-2-methyl-5-[2-(piperidin-4-yl)thieno[2,3-d][1,3]thiazol-5-yl]indazole]
100 to 1000 nM | 100 to 1000 nM | 100 to 1000 nM | 100 to 1000 nM | 100 to 1000 nM | 1000 to 10000 nM | 100 to 1000 nM | 1000 to 10000 nM | Cc1cn2nc(-c3cc4sc(C5CCNCC5)nc4s3)cc(C)c2n1 [Compound 125, 4-(5-[2,8-dimethylimidazo[1,2-b]pyridazin-6-yl]thieno [2,3-d][1,3]thiazol-2-yl) piperidine]
100 to 1000 nM | 100 to 1000 nM | 100 to 1000 nM | 100 to 1000 nM | 1000 to 10000 nM | 1000 to 10000 nM | 1000 to 10000 nM | 1000 to 10000 nM | Cc1nc2c(F)cc(-c3nc4sc(C5CCNCC5)cc4s3)cc2s1 [Compound 126]
